Here are results for 22 compounds from ChEMBL document CHEMBL3875142, “Quinolino[3,4-b]quinoxalines and pyridazino[4,3-c]quinoline derivatives: Synthesis, inhibition of topoisomerase IIα, G-quadruplex binding and cytotoxic properties” (Eur J Med Chem, 2016).

Active and inactive are the calls of the source. The rule behind the calls is not given here. A value given as a limit tells only on which side of the number the result lay.

Assay [1] has as its target DNA topoisomerase 2-alpha (Homo sapiens, UniProt P11388). Put plainly: Inhibition of human DNA topoisomerase 2alpha-mediated decatenation of kinetoplast DNA after 60 mins by agarose gel electrophoresis.
The subject of assay [2] is Escherichia coli. Put plainly: Induction of Escherichia coli pBR322 DNA unwinding at 0.1 to 10 uM after 1 hr by agarose gel electrophoresis.
A short description of assay [3]: Binding affinity to 5'-dabcyl/3'-fluorescein labeled duplex DNA (unknown origin) assessed as change in melting temperature at 10 uM by fluorescence assay.
For assay [4], the species on record is Homo sapiens. Nature of the assay: Binding affinity to 5'-dabcyl/3'-fluorescein labeled human telomeric sequence G-quadruplex DNA assessed as change in melting temperature at 10 uM by fluorescence assay.
Assay [5] can be described thus: Cytotoxicity against human HeLa cells after 72 hrs by MTT assay. The format is functional, cell-based.
Assay [6] is described as follows: Binding affinity to 5'-dabcyl/3'-fluorescein labeled cKit G-quadruplex DNA (unknown origin) assessed as change in melting temperature at 10 uM by fluorescence assay.
Assay [7] is described as follows: Binding affinity to 5'-dabcyl/3'-fluorescein labeled pu27 G-quadruplex DNA (unknown origin) assessed as change in melting temperature at 10 uM by fluorescence assay.
Assay [8] can be described thus: Cytotoxicity against human MCF7 cells after 72 hrs by MTT assay. It counts as functional, cell-based. The settings on record: MCF7, 72 h.
Assay [9] is described as follows: Inhibition of Escherichia coli DNA topoisomerase 4 decatenation activity using kinetoplast DNA as substrate after 60 mins by agarose gel electrophoresis.
Assay [10] is described as follows: Inhibition of thiazole orange binding to cKit G-quadruplex DNA (unknown origin) by fluorescence assay.
Assay [11] in a line: Inhibition of thiazole orange binding to pu27 G-quadruplex DNA (unknown origin) by fluorescence assay.
Assay [12] is described as follows: Inhibition of thiazole orange binding to duplex DNA (unknown origin) by fluorescence assay.
The nature of assay [13]: Inhibition of thiazole orange binding to human telomeric sequence G-quadruplex DNA by fluorescence assay.

Sequence of DNA topoisomerase 2-alpha (P11388 whole entry): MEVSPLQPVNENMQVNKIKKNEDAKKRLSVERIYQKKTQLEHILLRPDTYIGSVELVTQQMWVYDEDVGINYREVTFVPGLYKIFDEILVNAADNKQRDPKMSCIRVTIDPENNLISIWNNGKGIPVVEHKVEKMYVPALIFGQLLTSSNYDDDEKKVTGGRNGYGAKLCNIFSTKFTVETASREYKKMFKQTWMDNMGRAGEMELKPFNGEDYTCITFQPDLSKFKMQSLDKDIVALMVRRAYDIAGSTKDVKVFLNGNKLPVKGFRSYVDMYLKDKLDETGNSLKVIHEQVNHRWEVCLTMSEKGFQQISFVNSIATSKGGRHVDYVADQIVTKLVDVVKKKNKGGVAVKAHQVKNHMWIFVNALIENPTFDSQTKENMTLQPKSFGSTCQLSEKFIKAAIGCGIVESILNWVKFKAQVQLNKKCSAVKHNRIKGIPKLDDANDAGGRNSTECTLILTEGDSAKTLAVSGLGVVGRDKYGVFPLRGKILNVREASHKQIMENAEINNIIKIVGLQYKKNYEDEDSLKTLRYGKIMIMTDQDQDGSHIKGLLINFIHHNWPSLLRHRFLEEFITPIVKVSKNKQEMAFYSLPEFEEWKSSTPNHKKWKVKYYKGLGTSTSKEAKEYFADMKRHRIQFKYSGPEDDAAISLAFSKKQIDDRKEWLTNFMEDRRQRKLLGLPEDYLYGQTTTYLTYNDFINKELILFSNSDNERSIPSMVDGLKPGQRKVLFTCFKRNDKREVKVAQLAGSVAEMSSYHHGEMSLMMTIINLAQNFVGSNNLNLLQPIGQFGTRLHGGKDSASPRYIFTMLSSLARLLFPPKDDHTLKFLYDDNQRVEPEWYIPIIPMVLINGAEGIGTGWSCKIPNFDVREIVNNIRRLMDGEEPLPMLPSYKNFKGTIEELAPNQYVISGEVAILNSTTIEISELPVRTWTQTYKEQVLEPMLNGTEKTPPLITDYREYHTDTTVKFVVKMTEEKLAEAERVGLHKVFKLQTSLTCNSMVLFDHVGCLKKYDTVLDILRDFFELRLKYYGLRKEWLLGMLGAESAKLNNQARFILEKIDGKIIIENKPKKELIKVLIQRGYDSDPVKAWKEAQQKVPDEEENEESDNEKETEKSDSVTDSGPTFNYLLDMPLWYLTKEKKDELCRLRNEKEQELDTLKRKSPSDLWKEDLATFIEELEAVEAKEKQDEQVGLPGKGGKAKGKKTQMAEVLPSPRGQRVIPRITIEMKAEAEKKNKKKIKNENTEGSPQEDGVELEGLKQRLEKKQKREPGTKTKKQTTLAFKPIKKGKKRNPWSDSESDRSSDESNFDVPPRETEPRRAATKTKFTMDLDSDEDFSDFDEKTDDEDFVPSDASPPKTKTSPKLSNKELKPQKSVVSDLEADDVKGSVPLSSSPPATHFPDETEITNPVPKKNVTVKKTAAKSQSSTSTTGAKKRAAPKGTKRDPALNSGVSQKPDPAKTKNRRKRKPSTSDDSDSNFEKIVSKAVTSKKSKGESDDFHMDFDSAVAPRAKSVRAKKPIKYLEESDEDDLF

Turning to `COc1cccc2c1C(=O)c1c(O)c3c(c(O)c1C2=O)C[C@@](O)(C(=O)CO)C[C@@H]3O[C@H]1C[C@H](N)[C@H](O)[C@H](C)O1` [DOXORUBICIN], 3 µM corresponded to half-maximal inhibition in assay [1] (IC50). The result in [2] was Active.

For `CCN(CC)CCOc1nc2ccccc2c2nc3ccccc3nc12`, the ΔTm in assay [3] was determined as 0.1 °C; in assay [4], 1 °C; in [6], 2.5 °C; in assay [7], 0.8 °C. For the same compound, the IC50 in [1] was above 100 µM; in [5] it was 25.4 µM.

On to `CN(C)CCNc1nc2ccccc2c2nc3ccccc3nc12`, for which the IC50 in [8] was 2.34 µM; in assay [9], above 100 µM; in assay [1], 19.5 µM; in assay [5], 2.98 µM. Further, the ΔTm is 4.3 °C in [3], 8.2 °C in assay [4], 9.7 °C in assay [6] and 4 °C in [7].

In turn, `CO[C@@H]1[C@@H](OC(N)=O)[C@@H](O)[C@H](Oc2ccc3c(O)c(NC(=O)c4ccc(O)c(CC=C(C)C)c4)c(=O)oc3c2C)OC1(C)C` [NOVOBIOCIN] registered an IC50 in assay [9] of 63.4 µM.

As to `O=c1c2nc3ccccc3nc2c2ccccc2n1CCN1CCOCC1`, the IC50 in assay [8], in [9], in [1] and in [5] was above 100 µM throughout. The ΔTm in assay [3] was 0 °C; in assay [4], 0.8 °C; in assay [6] it was 0 °C; in [7], 0 °C.

For the compound `CN(CCCCCNc1nc2ccccc2c2nc3ccccc3nc12)Cc1ccccc1`, the IC50 in assay [8], in [9], in assay [1] and in assay [5] was above 100 µM each time. Moreover, the ΔTm in assay [3] was found to be 0 °C; in [4], 3.1 °C; in assay [6], 1.5 °C; in assay [7], 5.9 °C.

Take `CN(C)CCSc1nc2ccccc2c2nc3ccccc3nc12`: the IC50 in assay [8] was 2.41 µM; in assay [9], above 100 µM; in [1] it was 17.8 µM; in assay [5], 6.03 µM. The ΔTm in assay [3] is 4.2 °C; in [4], 10.6 °C; in assay [6], 11.2 °C; in assay [7], 8.8 °C.

On to `Cc1cc2c(=O)n(CCCN(C)C)c3ccccc3c2nn1`, for which the ΔTm in [3] amounted to 0.1 °C; in assay [4], 1.7 °C; in [6] it was 1.8 °C; in assay [7], 2.1 °C. Moreover, the IC50 was above 100 µM in assay [1] and 49.1 µM in assay [5].

As to `CCN(CC)CCNc1nc2ccccc2c2nc3ccccc3nc12`, the ΔTm came to 1.1 °C in assay [3], 1.1 °C in [4], 5.8 °C in [6] and 3.8 °C in [7]. Also, the IC50 is above 100 µM in assay [1] and 6.87 µM in [5].

With `CN(C)CCCOc1nc2ccccc2c2nc3ccccc3nc12`, the ΔTm worked out at 0.5 °C in assay [3], 1.4 °C in assay [4], 3.8 °C in assay [6] and 4.1 °C in assay [7]. Besides, the IC50 turned out to be 23.8 µM in assay [1] and 6.1 µM in [5].

Turning to `c1ccc2nc3c(nc2c1)c(NCCN1CCOCC1)nc1ccccc13`, the IC50 in [8] was above 100 µM; in [9], above 100 µM; in assay [1], 100 µM; in [5], above 100 µM. Further, the ΔTm in assay [3], in assay [4], in assay [6] and in assay [7] was 0 °C throughout.

In the case of `O=c1[nH]c2ccccc2c2nc3ccccc3nc12`, the IC50 is 32.7 µM in assay [8], above 100 µM in assay [9], above 100 µM in assay [1] and 19.8 µM in assay [5]. For the same compound, the ΔTm in assay [3], in [4], in assay [6] and in [7] was 0 °C each time.

For `CCN(CC)CCn1c(=O)c2nc3ccccc3nc2c2ccccc21`, the ΔTm in assay [3] is 0.4 °C; in assay [4] it was 2.3 °C; in assay [6], 4.5 °C; in assay [7], 3.5 °C. For the same compound, the IC50 in [1] is 87.6 µM; in [5] it was 8.52 µM.

Consider `CN(C)CCCCn1c(=O)c2nc3ccccc3nc2c2ccccc21`, for which the ΔTm stood at 0.9 °C in [3], 4.8 °C in assay [4], 7.4 °C in [6] and 6.4 °C in assay [7]. Further, the figures for the IC50 in [1] and in assay [5] were 34.3 µM and 11.1 µM, respectively.

For `CN(C)CCCNc1nc2ccccc2c2nc3ccccc3nc12`, the IC50 was 2.96 µM in assay [8], above 100 µM in assay [9], 11.3 µM in assay [1] and 5.37 µM in assay [5]. Further, the ΔTm turned out to be 2.2 °C in assay [3], 6.1 °C in assay [4], 6.9 °C in assay [6] and 5.9 °C in [7].

Turning to `CN(C)CCn1c(=O)c2nc3ccccc3nc2c2ccccc21`, the ΔTm in assay [3] worked out at 0.3 °C; in assay [4], 2.7 °C; in assay [6], 4.8 °C; in [7], 4.1 °C. The figures for the IC50 in assay [1] and in assay [5] were 35.6 µM and 7.18 µM, respectively.

`CCN(CC)CCCNc1nc2ccccc2c2nc3ccccc3nc12`: the ΔTm was found to be 1.5 °C in assay [3], 2 °C in [4], 4.7 °C in [6] and 5.9 °C in [7]. For the same compound, the IC50 turned out to be 13.9 µM in [1] and 6.53 µM in [5].

With `O=C1c2ccccc2C(=O)c2c(NCCNCCO)ccc(NCCNCCO)c21` [AMETANTRONE], the results for the IC50 in assay [8] and in [5] were 0.51 µM and 0.9 µM, respectively.

As for `CN(C)CCCCNc1nc2ccccc2c2nc3ccccc3nc12`, the IC50 was 1.6 µM in [8], above 100 µM in assay [9], 5.14 µM in [1] and 2.32 µM in assay [5]. Also, the EC50 worked out at 0.83 µM in assay [10], 0.57 µM in assay [11], 1.26 µM in assay [12] and 4.48 µM in assay [13]. In addition, the ΔTm was 4.2 °C in [3], 9.8 °C in assay [4], 11.6 °C in [6] and 9.4 °C in assay [7].

As for `c1ccc2nc3c(nc2c1)c(NCCN1CCCCC1)nc1ccccc13`, the ΔTm in assay [3] came out at 1.8 °C; in assay [4], 0.4 °C; in assay [6], 2 °C; in [7], 1.4 °C. In addition, the IC50 in [1] was 19.4 µM; in assay [5], 10.3 µM.

On to `CN(C)CCCn1c(=O)c2nc3ccccc3nc2c2ccccc21`, for which the IC50 is 5.99 µM in assay [8], above 100 µM in assay [9], above 100 µM in assay [1] and 2.04 µM in [5]. The figures for the EC50 in assay [10], in assay [11] and in [12] were 3.57 µM, 1.32 µM and 10.9 µM, respectively. For the same compound, the ΔTm in [3] was 0.4 °C; in [4], 4.7 °C; in [6], 7.8 °C; in assay [7], 5.5 °C.

`Cc1cc2c(=O)n(CCN(C)C)c3ccccc3c2nn1`: the ΔTm turned out to be 0.2 °C in [3], 1.2 °C in assay [4], 2.7 °C in assay [6] and 0.6 °C in assay [7]. In addition, the IC50 in assay [1] was above 100 µM; in assay [5] it was 40.9 µM.
